The record followed here is US20190134034A1, “Method of Treating Liver Cancer” (ASLAN Pharmaceuticals Pte. Ltd., priority 2016, published 2019).

Assay [1] deals with MAPK pathway. Kind of assay: Pharmacodynamics in HCC01-0708 PDX model. In kind it is in vivo. Particulars: after twelve days of treatment.
The test system of assay [2] is HCC29-0909A HCC patient-derived xenograft (co-expression of HER1, HER2 and HER3). Kind of assay: HCC patient-derived xenograft model HCC29-0909A in SCID mice, tumour volume. Type of assay: in vivo. Particulars: HCC29-0909A PDX in SCID mice. The protocol: A HCC patient-derived xenograft model in SCID mice (HCC29-0909A) with co-expression of HER1, HER2 and HER3 receptors [Cancer Res Aug. […] Dosing with varlitinib commenced when the tumours reached the size of approximately 100-150 mm^3. Bi-dimensional measurements are performed twice a week and tumour volumes are calculated based on the following formula: Tumour volume=[(Length)×(Width^2)×(p/6)].
Groups of mice were dosed as follows:
Group 1 control group received vehicle only
Group 2 received 25 mg/Kg of ASLAN001 BID (twice daily),
Group 3 received 50 mg/Kg of ASLAN001 BID (twice daily), and
Group 4 received 100 mg/Kg of ASLAN001 BID (twice daily).

For assay [3], the system named is HCC cell lines. Put plainly: Early apoptosis in HCC cell lines (Muse Annexin V & Dead Cell Assay). The conditions noted are these: all HCC cell lines tested; 48 hours of incubation. Type of assay: cell-based. The protocol:
(§1) An in vitro experiment was conducted to investigate whether varlitinib induced apoptosis in HCC cell lines. HCC cells were grown in cell culture medium with 10% FBS and with varying concentrations of varlitinib. Apoptosis profiles were analysed at 24 hour and 48 hour timepoints, using Muse Annexin V & Dead Cell Assay kit and Muse Cell Analyser. Early apoptosis cells (identified as Annexin V-PE positive and Dead Cell Marker negative) were measured and plotted.

Assay [4] deals with PLC/PRF/5 cells. Kind of assay: Apoptosis (AnnexinV) profile of PLC/PRF/5 cells. Particulars: 48 hour culture, increasing concentration. Type of assay: cell-based. The protocol:
as §1

Assay [5] deals with Huh7-SorR cells. Put plainly: Early apoptosis in sorafenib resistant cells (Muse Annexin V & Dead Cell Assay). In kind it is cell-based. The conditions noted are these: high dose of varlitinib. The method, then:
as §1

For assay [6], the system named is phosphorylation of HER1-3, RAS/RAF/MEK/MAPK, p70S6K, S6 ribosomal, 4EBP1, Cdc-2 and retinoblastoma. Put plainly: Western blot analysis of tumour lysates from HCC29-0909A xenograft (pharmacodynamics). In kind it is in vivo, SCID mice. Particulars: Western blot of tumour lysates after two and fourteen days of treatment. Background: In western blotting, separated proteins are transferred to a membrane and probed.

Assay [7] has as its system HCC01-0708 HER2/HER3 co-expressing PDX model of HCC. Put plainly: HCC patient-derived xenograft model HCC01-0708, tumour volume. Type of assay: in vivo. The conditions noted are these: HCC01-0708 PDX; 25, 50 or 100 mg/kg BID. (In xenograft studies the graft and the host belong to different species.)

Each structure is given as a SMILES string. “Also recorded” adds a separate entry of the source.

Regarding `C[C@@H]1COC(Nc2ccc3ncnc(Nc4ccc(OCc5nccs5)c(Cl)c4)c3c2)=N1` [varlitinib, (R)-N4-[3-Chloro-4-(thiazol-2-ylmethoxy)-phenyl]-N6-(4-methyl-4,5,-dihydro-oxazol-2-yl)-quinazoline-4,6-diamine], the “inhibition of the MAPK pathway” value in assay [1] is on record as “robust inhibition”. Besides, in assay [2] (100 mg/kg BID), the tumor regression entry was “complete tumor regression”. In addition, the “tumour growth inhibition (tumour volume)” value in assay [2] (25, 50 or 100 mg/kg BID) was “potently inhibited tumour growth; also recorded: dose-dependent tumour volume growth inhibition”; in assay [7] it was “inhibited tumour growth; also recorded: dose-dependent tumour volume growth inhibition”. Further, in assay [3], the “induction of early apoptosis (Annexin V-PE positive, Dead Cell Marker negative)” value was “able to induce early apoptosis”. Also, the “percentage of apoptotic cells” value in assay [4] was “increase in percentage of apoptotic cells correlates with increasing varlitinib concentration”. This compound had an early apoptosis in assay [5] of around 70%. Further, in assay [6], the “phosphorylation of HER1-3, RAS/RAF/MEK/MAPK, p70S6K, S6 ribosomal, 4EBP1, Cdc-2 and retinoblastoma” value is on record as “strongly inhibited”.
